Organism: Rattus norvegicus
Assay: DrugMatrix - Regimen: Daily Repeat
Type: toxicity, organism-based, Sprague-Dawley
Design: regimen Daily Repeat, gender Male, age 6-8 weeks
Details: in vivo, po, route oral GAVAGE, […]; for ABSOLUTE BASOPHIL / ABSOLUTE EOSINOPHIL / ABSOLUTE LYMPHOCYTE / ABSOLUTE MONOCYTE / ABSOLUTE SEGMENTED NEUTROPHIL / BASOPHIL / EOSINOPHIL / ERYTHROCYTE COUNT / HEMATOCRIT / HEMOGLOBIN / LEUKOCYTE COUNT / LYMPHOCYTE / MEAN CORPUSCULAR HEMOGLOBIN / MEAN CORPUSCULAR HEMOGLOBIN CONCENTRATION / MEAN CORPUSCULAR VOLUME / MONOCYTE / NEUTROPHIL / NUCLEATED RED BLOOD CELLS / PLATELET COUNT: tissue Blood; for ALANINE AMINOTRANSFERASE / ALBUMIN / ALKALINE PHOSPHATASE / ASPARTATE AMINOTRANSFERASE / BLOOD UREA NITROGEN / CARBON DIOXIDE / CHLORIDE / CHOLESTEROL / CREATINE PHOSPHOKINASE / CREATININE / GLUCOSE / LACTATE DEHYDROGENASE / LIPASE / PHOSPHORUS / POTASSIUM / SODIUM / TOTAL BILIRUBIN / TOTAL PROTEIN / URIC ACID: tissue Plasma
[1] = 0 mg/kg, 72 h, dose level Control, time 3 day
[2] = 0 mg/kg, 120 h, dose level Control, time 5 day
[3] = 59 mg/kg, 72 h, dose level Low, time 3 day
[4] = 59 mg/kg, 120 h, dose level Low, time 5 day

Oc1c(Cl)cc(Cl)cc1Sc1cc(Cl)cc(Cl)c1O [BITHIONOL]
ABSOLUTE BASOPHIL [1]: 0 CELLS/uL | ABSOLUTE EOSINOPHIL [1]: 33 CELLS/uL | ABSOLUTE LYMPHOCYTE [1]: 9048.5 CELLS/uL | ABSOLUTE MONOCYTE [1]: 80.17 CELLS/uL | ABSOLUTE SEGMENTED NEUTROPHIL [1]: 1521.67 CELLS/uL | BASOPHIL [1]: 0% | EOSINOPHIL [1]: 0.17% | ERYTHROCYTE COUNT [1]: 5.46 x10E6/uL | HEMATOCRIT [1]: 32.87% | HEMOGLOBIN [1]: 12.95 G/DL | LEUKOCYTE COUNT [1]: 10.68 x10E3/uL | LYMPHOCYTE [1]: 86.67% | MEAN CORPUSCULAR HEMOGLOBIN [1]: 23.72 pg | MEAN CORPUSCULAR HEMOGLOBIN CONCENTRATION [1]: 39.4 G/DL | MEAN CORPUSCULAR VOLUME [1]: 60.18 fL | MONOCYTE [1]: 0.83% | NEUTROPHIL [1]: 12.33% | NUCLEATED RED BLOOD CELLS [1]: 0 /100WBC | PLATELET COUNT [1]: 1211.33 x10E3/uL | ALANINE AMINOTRANSFERASE [1]: 76.67 u/L | ALBUMIN [1]: 3.93 G/DL | ALKALINE PHOSPHATASE [1]: 317.17 u/L | ASPARTATE AMINOTRANSFERASE [1]: 81.17 u/L | BLOOD UREA NITROGEN [1]: 12.33 mg/dL | CARBON DIOXIDE [1]: 31.17 mmol/L | CHLORIDE [1]: 98.33 MEQ/L | CHOLESTEROL [1]: 67.17 mg/dL | CREATINE PHOSPHOKINASE [1]: 312.33 u/L | CREATININE [1]: 0.19 mg/dL | GLUCOSE [1]: 165.5 mg/dL | LACTATE DEHYDROGENASE [1]: 94.5 u/L | LIPASE [1]: 9.83 u/L | PHOSPHORUS [1]: 10.1 mg/dL | POTASSIUM [1]: 5.16 MEQ/L | SODIUM [1]: 143.02 MEQ/L | TOTAL BILIRUBIN [1]: 0.2 mg/dL | TOTAL PROTEIN [1]: 5.88 G/DL | URIC ACID [1]: 0.68 mg/dL | ABSOLUTE BASOPHIL [2]: 0 CELLS/uL | ABSOLUTE EOSINOPHIL [2]: 14.67 CELLS/uL | ABSOLUTE LYMPHOCYTE [2]: 9629.83 CELLS/uL | ABSOLUTE MONOCYTE [2]: 72.5 CELLS/uL | ABSOLUTE SEGMENTED NEUTROPHIL [2]: 1049.67 CELLS/uL | BASOPHIL [2]: 0% | EOSINOPHIL [2]: 0.17% | ERYTHROCYTE COUNT [2]: 5.36 x10E6/uL | HEMATOCRIT [2]: 33.82% | HEMOGLOBIN [2]: 13.48 G/DL | LEUKOCYTE COUNT [2]: 10.77 x10E3/uL | LYMPHOCYTE [2]: 90.17% | MEAN CORPUSCULAR HEMOGLOBIN [2]: 25.28 pg | MEAN CORPUSCULAR HEMOGLOBIN CONCENTRATION [2]: 39.92 G/DL | MEAN CORPUSCULAR VOLUME [2]: 63.3 fL | MONOCYTE [2]: 0.67% | NEUTROPHIL [2]: 9% | NUCLEATED RED BLOOD CELLS [2]: 0.17 /100WBC | PLATELET COUNT [2]: 1275.33 x10E3/uL | ALANINE AMINOTRANSFERASE [2]: 93.67 u/L | ALBUMIN [2]: 4.17 G/DL | ALKALINE PHOSPHATASE [2]: 402.5 u/L | ASPARTATE AMINOTRANSFERASE [2]: 122.83 u/L | BLOOD UREA NITROGEN [2]: 14.75 mg/dL | CARBON DIOXIDE [2]: 26.4 mmol/L | CHLORIDE [2]: 98.5 MEQ/L | CHOLESTEROL [2]: 57.5 mg/dL | CREATINE PHOSPHOKINASE [2]: 305.17 u/L | CREATININE [2]: 0.21 mg/dL | GLUCOSE [2]: 142 mg/dL | LACTATE DEHYDROGENASE [2]: 83.5 u/L | LIPASE [2]: 85.83 u/L | PHOSPHORUS [2]: 8.18 mg/dL | POTASSIUM [2]: 5.46 MEQ/L | SODIUM [2]: 144 MEQ/L | TOTAL BILIRUBIN [2]: 0.25 mg/dL | TOTAL PROTEIN [2]: 5.63 G/DL | URIC ACID [2]: 0.8 mg/dL | ABSOLUTE BASOPHIL [3]: 0 CELLS/uL | ABSOLUTE EOSINOPHIL [3]: 0 CELLS/uL | ABSOLUTE LYMPHOCYTE [3]: 6654 CELLS/uL | ABSOLUTE MONOCYTE [3]: 41.33 CELLS/uL | ABSOLUTE SEGMENTED NEUTROPHIL [3]: 671.33 CELLS/uL | BASOPHIL [3]: 0% | EOSINOPHIL [3]: 0% | ERYTHROCYTE COUNT [3]: 5.26 x10E6/uL | HEMATOCRIT [3]: 32.77% | HEMOGLOBIN [3]: 12.93 G/DL | LEUKOCYTE COUNT [3]: 7.37 x10E3/uL | LYMPHOCYTE [3]: 90% | MEAN CORPUSCULAR HEMOGLOBIN [3]: 24.57 pg | MEAN CORPUSCULAR HEMOGLOBIN CONCENTRATION [3]: 39.5 G/DL | MEAN CORPUSCULAR VOLUME [3]: 62.3 fL | MONOCYTE [3]: 0.67% | NEUTROPHIL [3]: 9.33% | NUCLEATED RED BLOOD CELLS [3]: 0 /100WBC | PLATELET COUNT [3]: 1231 x10E3/uL | ALANINE AMINOTRANSFERASE [3]: 78.67 u/L | ALBUMIN [3]: 4.07 G/DL | ALKALINE PHOSPHATASE [3]: 362 u/L | ASPARTATE AMINOTRANSFERASE [3]: 89.33 u/L | BLOOD UREA NITROGEN [3]: 13.67 mg/dL | CARBON DIOXIDE [3]: 31.67 mmol/L | CHLORIDE [3]: 98.67 MEQ/L | CHOLESTEROL [3]: 74.33 mg/dL | CREATINE PHOSPHOKINASE [3]: 365.67 u/L | CREATININE [3]: 0.18 mg/dL | GLUCOSE [3]: 157.67 mg/dL | LACTATE DEHYDROGENASE [3]: 123.67 u/L | LIPASE [3]: 10 u/L | PHOSPHORUS [3]: 11.23 mg/dL | POTASSIUM [3]: 6.04 MEQ/L | SODIUM [3]: 142.9 MEQ/L | TOTAL BILIRUBIN [3]: 0.17 mg/dL | TOTAL PROTEIN [3]: 5.97 G/DL | URIC ACID [3]: 0.6 mg/dL | ABSOLUTE BASOPHIL [4]: 0 CELLS/uL | ABSOLUTE EOSINOPHIL [4]: 30 CELLS/uL | ABSOLUTE LYMPHOCYTE [4]: 8041.67 CELLS/uL | ABSOLUTE MONOCYTE [4]: 31.33 CELLS/uL | ABSOLUTE SEGMENTED NEUTROPHIL [4]: 663.67 CELLS/uL | BASOPHIL [4]: 0% | EOSINOPHIL [4]: 0.33% | ERYTHROCYTE COUNT [4]: 5.55 x10E6/uL | HEMATOCRIT [4]: 33.6% | HEMOGLOBIN [4]: 13.2 G/DL | LEUKOCYTE COUNT [4]: 8.77 x10E3/uL | LYMPHOCYTE [4]: 91.67% | MEAN CORPUSCULAR HEMOGLOBIN [4]: 23.8 pg | MEAN CORPUSCULAR HEMOGLOBIN CONCENTRATION [4]: 39.27 G/DL | MEAN CORPUSCULAR VOLUME [4]: 60.53 fL | MONOCYTE [4]: 0.33% | NEUTROPHIL [4]: 7.67% | NUCLEATED RED BLOOD CELLS [4]: 0 /100WBC | PLATELET COUNT [4]: 933.33 x10E3/uL | ALANINE AMINOTRANSFERASE [4]: 82.33 u/L | ALBUMIN [4]: 4.23 G/DL | ALKALINE PHOSPHATASE [4]: 343.33 u/L | ASPARTATE AMINOTRANSFERASE [4]: 99.67 u/L | BLOOD UREA NITROGEN [4]: 14.67 mg/dL | CARBON DIOXIDE [4]: 27.67 mmol/L | CHLORIDE [4]: 102.33 MEQ/L | CHOLESTEROL [4]: 55.67 mg/dL | CREATINE PHOSPHOKINASE [4]: 348 u/L | CREATININE [4]: 0.19 mg/dL | GLUCOSE [4]: 150.67 mg/dL | LACTATE DEHYDROGENASE [4]: 104.67 u/L | LIPASE [4]: 19 u/L | PHOSPHORUS [4]: 9.53 mg/dL | POTASSIUM [4]: 5.41 MEQ/L | SODIUM [4]: 145.97 MEQ/L | TOTAL BILIRUBIN [4]: 0.23 mg/dL | TOTAL PROTEIN [4]: 5.97 G/DL | URIC ACID [4]: 0.9 mg/dL

Source: ChEMBL document CHEMBL3885881, “DrugMatrix”
